From ChEMBL document CHEMBL4011590, “Structure-activity relationship studies on 3,5-dinitrophenyl tetrazoles as antitubercular agents” (Eur J Med Chem, 2017)
Values after ≈ are worked out from the molar mass of the structure shown.

Assays:
[1] = test system: Candida tropicalis; assay: Antifungal activity against Candida tropicalis 156 after 48 hrs by broth microdilution method; assay type: functional; details: Candida tropicalis, 156, 48 h
[2] = test system: HaCaT; assay: Cytotoxicity against human HaCaT cells after 72 hrs by neutral red uptake assay; assay type: cell-based
[3] = Selectivity index, ratio of IC50 for mouse 3T3 cells to MIC for Mycobacterium tuberculosis H37Rv CNCTC My 331/88; assay type: toxicity; details: read-out: Selectivity Index
[4] = test system: Klebsiella pneumoniae; assay: Antibacterial activity against Klebsiella pneumoniae HK11750/08 after 24 hrs by broth microdilution method; assay type: functional; details: HK11750/08, 24 h
[5] = test system: Trichosporon asahii; assay: Antifungal activity against Trichosporon asahii 1188 after 48 hrs by broth microdilution method; assay type: functional; details: Trichosporon asahii, 1188, 48 h
[6] = Selectivity index, ratio of IC50 for CHOK1 cells to MIC for Mycobacterium tuberculosis H37Rv CNCTC My 331/88; assay type: toxicity; details: hamster, CHO-K1 cells; read-out: Selectivity Index
[7] = test system: Mycobacterium avium; assay: Antimycobacterial activity against Mycobacterium avium CNCTC My 330/80 after 21 days by micromethod; assay type: functional; details: CNCTC My 330/80, 504 h
[8] = test system: Trichosporon asahii; assay: Antifungal activity against Trichosporon asahii 1188 after 24 hrs by broth microdilution method; assay type: functional; details: Trichosporon asahii, 1188, 24 h
[9] = test system: Mycobacterium tuberculosis; assay: Antimycobacterial activity against Mycobacterium tuberculosis H37Rv CNCTC My 331/88 after 14 days by micromethod; assay type: functional; details: H37Rv CNCTC My 331/88, 336 h
[10] = test system: Trichophyton mentagrophytes; assay: Antifungal activity against Trichophyton mentagrophytes 445 after 72 hrs by broth microdilution method; assay type: functional; details: Trichophyton mentagrophytes, 445, 72 h
[11] = test system: Pseudomonas aeruginosa; assay: Antibacterial activity against Pseudomonas aeruginosa ATCC 9027 after 48 hrs by broth microdilution method; assay type: functional; details: ATCC 9027, 48 h
[12] = test system: Mycobacterium kansasii; assay: Antimycobacterial activity against Mycobacterium kansasii isolate 6509/96 after 14 days by micromethod; assay type: functional; details: isolate 6509/96, 336 h
[13] = test system: Staphylococcus aureus; assay: Antibacterial activity against methicillin-resistant Staphylococcus aureus HK5996/08 after 24 hrs by broth microdilution method; assay type: functional; details: HK5996/08, 24 h
[14] = test system: Candida albicans; assay: Antifungal activity against Candida albicans ATCC 44859 after 24 hrs by broth microdilution method; assay type: functional; details: ATCC 44859, 24 h
[15] = test system: Mycobacterium tuberculosis; assay: Antimycobacterial activity against Mycobacterium tuberculosis H37Rv CNCTC My 331/88 after 21 days by micromethod; assay type: functional; details: H37Rv CNCTC My 331/88, 504 h
[16] = test system: Aspergillus fumigatus; assay: Antifungal activity against Aspergillus fumigatus 231 after 48 hrs by broth microdilution method; assay type: functional; details: Aspergillus fumigatus, 231, 48 h
[17] = test system: Enterococcus sp.; assay: Antibacterial activity against Enterococcus sp. HK14365/08 after 24 hrs by broth microdilution method; assay type: functional; details: HK14365/08, 24 h
[18] = test system: Klebsiella pneumoniae; assay: Antibacterial activity against extended spectrum beta-lactamase producing Klebsiella pneumoniae HK14368/08 after 24 hrs by broth microdilution method; assay type: functional; details: HK14368/08, 24 h
[19] = test system: Mycobacterium kansasii; assay: Antimycobacterial activity against Mycobacterium kansasii CNCTC My 235/80 after 21 days by micromethod; assay type: functional; details: CNCTC My 235/80, 504 h
[20] = test system: Mycobacterium kansasii; assay: Antimycobacterial activity against Mycobacterium kansasii CNCTC My 235/80 after 14 days by micromethod; assay type: functional; details: CNCTC My 235/80, 336 h
[21] = Selectivity index, ratio of IC50 for human HaCaT cells to MIC for Mycobacterium tuberculosis H37Rv CNCTC My 331/88; assay type: toxicity; details: read-out: Selectivity Index
[22] = test system: Mycobacterium kansasii; assay: Antimycobacterial activity against Mycobacterium kansasii isolate 6509/96 after 21 days by micromethod; assay type: functional; details: isolate 6509/96, 504 h
[23] = test system: Aspergillus fumigatus; assay: Antifungal activity against Aspergillus fumigatus 231 after 24 hrs by broth microdilution method; assay type: functional; details: Aspergillus fumigatus, 231, 24 h
[24] = test system: Staphylococcus aureus; assay: Antibacterial activity against methicillin-resistant Staphylococcus aureus HK5996/08 after 48 hrs by broth microdilution method; assay type: functional; details: HK5996/08, 48 h
[25] = test system: Staphylococcus aureus; assay: Antibacterial activity against Staphylococcus aureus ATCC 6538 after 48 hrs by broth microdilution method; assay type: functional; details: ATCC 6538, 48 h
[26] = test system: Enterococcus sp.; assay: Antibacterial activity against Enterococcus sp. HK14365/08 after 48 hrs by broth microdilution method; assay type: functional; details: HK14365/08, 48 h
[27] = test system: Lichtheimia corymbifera; assay: Antifungal activity against Absidia corymbifera 272 after 24 hrs by broth microdilution method; assay type: functional; details: Lichtheimia corymbifera, 272, 24 h
[28] = test system: Klebsiella pneumoniae; assay: Antibacterial activity against extended spectrum beta-lactamase producing Klebsiella pneumoniae HK14368/08 after 48 hrs by broth microdilution method; assay type: functional; details: HK14368/08, 48 h
[29] = test system: Mycobacterium kansasii; assay: Antimycobacterial activity against Mycobacterium kansasii CNCTC My 235/80 after 7 days by micromethod; assay type: functional; details: CNCTC My 235/80, 168 h
[30] = test system: Pichia kudriavzevii; assay: Antifungal activity against Candida krusei E28 after 24 hrs by broth microdilution method; assay type: functional; details: E28, 24 h
[31] = test system: Pichia kudriavzevii; assay: Antifungal activity against Candida krusei E28 after 48 hrs by broth microdilution method; assay type: functional; details: E28, 48 h
[32] = test system: Candida albicans; assay: Antifungal activity against Candida albicans ATCC 44859 after 48 hrs by broth microdilution method; assay type: functional; details: ATCC 44859, 48 h
[33] = test system: Candida tropicalis; assay: Antifungal activity against Candida tropicalis 156 after 24 hrs by broth microdilution method; assay type: functional; details: Candida tropicalis, 156, 24 h
[34] = test system: Staphylococcus aureus; assay: Antibacterial activity against Staphylococcus aureus ATCC 6538 after 24 hrs by broth microdilution method; assay type: functional; details: ATCC 6538, 24 h
[35] = test system: Trichophyton mentagrophytes; assay: Antifungal activity against Trichophyton mentagrophytes 445 after 120 hrs by broth microdilution method; assay type: functional; details: Trichophyton mentagrophytes, 445, 120 h
[36] = test system: Nakaseomyces glabratus; assay: Antifungal activity against Candida glabrata 20/I after 24 hrs by broth microdilution method; assay type: functional
[37] = test system: Mycobacterium kansasii; assay: Antimycobacterial activity against Mycobacterium kansasii isolate 6509/96 after 7 days by micromethod; assay type: functional; details: isolate 6509/96, 168 h
[38] = test system: Escherichia coli; assay: Antibacterial activity against Escherichia coli ATCC 8739 after 24 hrs by broth microdilution method; assay type: functional; details: ATCC 8739, 24 h
[39] = test system: Pseudomonas aeruginosa; assay: Antibacterial activity against Pseudomonas aeruginosa ATCC 9027 after 24 hrs by broth microdilution method; assay type: functional; details: ATCC 9027, 24 h
[40] = test system: Lichtheimia corymbifera; assay: Antifungal activity against Absidia corymbifera 272 after 48 hrs by broth microdilution method; assay type: functional; details: Lichtheimia corymbifera, 272, 48 h
[41] = test system: CHO-K1; assay: Cytotoxicity against CHOK1 cells after 24 hrs by MTT assay; assay type: cell-based; details: Cricetulus griseus, CHO-K1, 24 h
[42] = test system: Mycobacterium avium; assay: Antimycobacterial activity against Mycobacterium avium CNCTC My 330/80 after 14 days by micromethod; assay type: functional; details: CNCTC My 330/80, 336 h
[43] = test system: Nakaseomyces glabratus; assay: Antifungal activity against Candida glabrata 20/I after 48 hrs by broth microdilution method; assay type: functional
[44] = test system: Escherichia coli; assay: Antibacterial activity against Escherichia coli ATCC 8739 after 48 hrs by broth microdilution method; assay type: functional; details: ATCC 8739, 48 h
[45] = test system: Klebsiella pneumoniae; assay: Antibacterial activity against Klebsiella pneumoniae HK11750/08 after 48 hrs by broth microdilution method; assay type: functional; details: HK11750/08, 48 h

Work on `COc1ccc(Cn2nnc(-c3cc([N+](=O)[O-])cc([N+](=O)[O-])c3)n2)cc1` yielded an MIC [1] greater than 500 µM, an IC50 [2] greater than 100 µM and a selectivity ratio [3] greater than 1000. It also gave an MIC [4] greater than 500 µM, an MIC [5] greater than 500 µM and a selectivity ratio [6] greater than 1000. For the same molecule, the MIC99 [7] was 8 µM (≈ 2.85 µg/mL), the MIC [8] was greater than 500 µM and the MIC99 [9] was 0.03 µM (≈ 0.0107 µg/mL). The MIC [10] was greater than 500 µM, the MIC [11] was greater than 500 µM and the MIC99 [12] was 0.06 µM (≈ 0.0214 µg/mL). It also gave an MIC [13] of 250 µM (≈ 89.1 µg/mL), an MIC [14] greater than 500 µM and an MIC99 [15] of 0.03 µM (≈ 0.0107 µg/mL). It also gave an MIC [16] greater than 500 µM, an MIC [17] greater than 500 µM and an MIC [18] greater than 500 µM. For the same molecule, the MIC99 [19] was 0.25 µM (≈ 0.0891 µg/mL), the MIC99 [20] was 0.125 µM (≈ 0.0445 µg/mL) and the selectivity ratio [21] was greater than 1000. The MIC99 [22] was 0.125 µM (≈ 0.0445 µg/mL), the MIC [23] was greater than 500 µM and the MIC [24] was 250 µM (≈ 89.1 µg/mL). The MIC [25] was greater than 250 µM, the MIC [26] was greater than 500 µM and the MIC [27] was greater than 500 µM. The MIC [28] was greater than 500 µM, the MIC99 [29] was 0.125 µM (≈ 0.0445 µg/mL) and the MIC [30] was greater than 500 µM. The MIC [31] was greater than 500 µM, the MIC [32] was greater than 500 µM and the MIC [33] was greater than 500 µM. The MIC [34] was greater than 250 µM, the MIC [35] was greater than 500 µM and the MIC [36] was greater than 500 µM. The MIC99 [37] was 0.06 µM (≈ 0.0214 µg/mL), the MIC [38] was greater than 500 µM and the MIC [39] was greater than 500 µM. For the same molecule, the MIC [40] was greater than 500 µM, the IC50 [41] was 96 µM and the MIC99 [42] was 4 µM (≈ 1.43 µg/mL). The MIC [43] was greater than 500 µM, the MIC [44] was greater than 500 µM and the MIC [45] was greater than 500 µM.
